Patent publication US12128072B2, “Hepatocytes and hepatic non-parenchymal cells, and methods for preparation thereof” (The University of Tokyo, priority 2015, dated 2024)

Tested on: mouse CD45-FLK1+CD31+CD34+ cells (liver sinusoidal endothelial progenitor cells)
Experiment: Expression of liver sinusoidal endothelial cell marker genes by quantitative RT-PCR in mouse embryonic liver FLK1+CD31+CD34+ cells
Assay type: cell-based
Conditions: 5 days after addition of A83-01, versus day 0 before addition; FIG. 45
Experimental: TRIzol reagent (Life Technologies) or NucleoSpin RNA XS (MACHEREY-NAGAL, Duren, Germany) was used to extract the RNA. The remaining genomic DNA was digested using DNaseI (Life Technologies), and then a PrimeScript II 1st strand cDNA Synthesis Kit (Takara Bio, Shiga, Japan) was used to synthesize single-stranded cDNA. The quantitative RT-PCR was carried out using SYBR Premix EX TaqII (Takara Bio, Shiga, Japan), and the data were calculated according to the ddCt method with β-actin as the standardization control.
Liver was collected from a 12.5-day-old mouse embryo (C57BL/6 mouse). The liver was minced and digested for 10 minutes with Liver Digestion Medium (Life Technologies, California, US). The digested embryonic mouse hepatocytes were subjected to hemolysis and passed through a 70 μm cell strainer (BD Bioscience, New Jersey, US). […]
The FLK1^+CD31^+CD34^+ cells separated above were also seeded in a fibronectin-coated plate to 15,000 cells/cm^2 and cultured in endothelial cell medium. […] The cell count was calculated using a hemocytometer, after dissociating the cells using 0.05% trypsin/0.5 mM EDTA.

SMILES: Cc1cccc(-c2nn(C(=S)Nc3ccccc3)cc2-c2ccnc3ccccc23)n1 [A83-01, 3-(6-methyl-2-pyridinyl)-N-phenyl-4-(4-quinolinyl)-1H-pyrazolo-1-carbothioamide]
- expression of the mature liver sinusoidal endothelial cell marker genes Stab2, F8 and Lyve1: significantly induced expression
